Patent publication US12077503B2, “Substituted cyclic amides and their use as herbicides” (FMC CORPORATION, priority 2015, dated 2024)

Columns and labels:
Assay type in all cases: in vivo
[1] = tested on: ducksalad (Heteranthera limosa); assay: Test B flooded paddy test; settings: Flood, 250 g ai/ha; 0 to 100 scale where 0 is no effect and 100 is complete control; 13 to 15 d
Outline: (§1)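 Rating scale 0–100 (visual, vs untreated controls) after a 13–15 d greenhouse period; application to the flood layer, 3 cm above soil and maintained; plants at 2-leaf stage when treated.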

[2] = tested on: barnyardgrass (Echinochloa crus-galli); assay: Test B flooded paddy test; settings: Flood, 250 g ai/ha; 0 to 100 scale where 0 is no effect and 100 is complete control; 13 to 15 d
Outline: as §1

rice (Oryra sativa) = assay: Test B flooded paddy test; settings: Flood, 250 g ai/ha; 0 to 100 scale where 0 is no effect and 100 is complete control; 13 to 15 d
Outline: as §1

[3] = tested on: sedge, umbrella (small-flower umbrella sedge, Cyperus difformis); assay: Test B flooded paddy test; settings: Flood, 250 g ai/ha; 0 to 100 scale where 0 is no effect and 100 is complete control; 13 to 15 d
Outline: as §1

[4] = tested on: pigweed (Amaranthus retroflexus); assay: Test A preemergence; settings: for Pigweed plant response rating (0 to 100 scale, 0 is no effect, 100 is complete control): visual injury approx. 10 d
[5] = tested on: giant foxtail (Setaria faberii); assay: Test A preemergence; settings: for Foxtail, Giant plant response rating (0 to 100 scale, 0 is no effect, 100 is complete control): visual injury approx. 10 d
Outline: (§2)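 Visual injury scores from 0, no effect, to 100, complete control, were assigned versus untreated controls roughly 10 d after treatment in the greenhouse. Test chemicals, formulated with surfactant in a non-phytotoxic solvent, were applied to planted seeds as a preemergence soil spray or postemergence to one- to two-leaf plants 2 to 10 cm tall, in loam–sand soil.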

[6] = tested on: ragweed (common ragweed, Ambrosia elatior); assay: Test A preemergence
Outline: as §2

[7] = tested on: barnyardgrass (Echinochloa crus-galli); assay: Test A preemergence; settings: for Barnyardgrass plant response rating (0 to 100 scale, 0 is no effect, 100 is complete control): visual injury approx. 10 d
Outline: as §2

[8] = tested on: ryegrass, Italian (Italian ryegrass, Lolium multiflorum); assay: Test A preemergence; settings: for Ryegrass, Italian plant response rating (0 to 100 scale, 0 is no effect, 100 is complete control): visual injury approx. 10 d
Outline: as §2

Kochia (Kochia scoparia) [9] = assay: Test A preemergence; settings: for Kochia plant response rating (0 to 100 scale, 0 is no effect, 100 is complete control): visual injury approx. 10 d
Outline: as §2

[10] = tested on: pigweed (Amaranthus retroflexus); assay: Test A postemergence; settings: for Pigweed plant response rating: visual injury rating on 0 to 100 scale (0 no effect, 100 complete control), approx. 10 d
Outline: as §2

[11] = tested on: giant foxtail (Setaria faberii); assay: Test A postemergence; settings: for Foxtail, Giant plant response rating: visual injury rating on 0 to 100 scale (0 no effect, 100 complete control), approx. 10 d
Outline: as §2

[12] = tested on: ragweed (common ragweed, Ambrosia elatior); assay: Test A postemergence; settings: for Ragweed plant response rating: visual injury rating on 0 to 100 scale (0 no effect, 100 complete control), approx. 10 d
Outline: as §2

[13] = tested on: Galium (catchweed bedstraw, Galium aparine); assay: Test A postemergence; settings: for Galium plant response rating: visual injury rating on 0 to 100 scale (0 no effect, 100 complete control), approx. 10 d
Outline: as §2

[14] = tested on: barnyardgrass (Echinochloa crus-galli); assay: Test A postemergence; settings: for Barnyardgrass plant response rating: visual injury rating on 0 to 100 scale (0 no effect, 100 complete control), approx. 10 d
Outline: as §2

[15] = tested on: blackgrass (Alopecurus myosuroides); assay: Test A postemergence; settings: for Blackgrass plant response rating: visual injury rating on 0 to 100 scale (0 no effect, 100 complete control), approx. 10 d
Outline: as §2

[16] = tested on: ryegrass, Italian (Italian ryegrass, Lolium multiflorum); assay: Test A postemergence; settings: for Ryegrass, Italian plant response rating: visual injury rating on 0 to 100 scale (0 no effect, 100 complete control), approx. 10 d
Outline: as §2

[17] = tested on: wheat (Triticum aestivum); assay: Test A postemergence; settings: for Wheat plant response rating: visual injury rating on 0 to 100 scale (0 no effect, 100 complete control), approx. 10 d
Outline: as §2

Kochia (Kochia scoparia) [18] = assay: Test A postemergence; settings: for Kochia plant response rating: visual injury rating on 0 to 100 scale (0 no effect, 100 complete control), approx. 10 d
Outline: as §2

corn (Zea mays) = assay: Test A postemergence; settings: for Corn plant response rating: visual injury rating on 0 to 100 scale (0 no effect, 100 complete control), approx. 10 d
Outline: as §2

[19] = 125 g ai/ha, preemergence, 0 to 100 scale (0 no effect, 100 complete control)
[20] = 500 g ai/ha, postemergence, 0 to 100 scale, 0 no effect, 100 complete control
[21] = 125 g ai/ha, Preemergence, visual injury after approximately 10 d, 0 to 100 scale where 0 is no effect and 100 is complete control
[22] = Postemergence, 500 g ai/ha, 0 to 100 scale where 0 is no effect and 100 is complete control
[23] = 500 g ai/ha, preemergence, 0 to 100 scale, 0 = no effect, 100 = complete control
[24] = 125 g ai/ha, postemergence, visual rating after approx. 10 d, 0 to 100 scale (0 no effect, 100 complete control)

SMILES: Cc1ccc(C2CN(C)C(=O)C2C(=O)Nc2cccc(F)c2F)cc1F (centres unmarked) [Compound 464]
- Plant response rating, Ducksalad [1]: 100
- Plant response rating, Barnyardgrass [2]: 70
- Plant response rating, Rice (rice (Oryra sativa)): 20
- Plant response rating, Sedge, Umbrella [3]: 0
- Plant response rating, Pigweed [4, 19]: 70
- Pigweed plant response rating (0 to 100 scale, 0 is no effect, 100 is complete control) ([4]; Preemergence, 500 g ai/ha): 70
- Plant response rating, Foxtail, Giant [5, 19]: 90
- Foxtail, Giant plant response rating (0 to 100 scale, 0 is no effect, 100 is complete control) ([5]; Preemergence, 500 g ai/ha): 90
- Plant response rating, Ragweed [6, 19]: 50
- Plant response rating, Barnyardgrass [7, 19]: 90
- Barnyardgrass plant response rating (0 to 100 scale, 0 is no effect, 100 is complete control) ([7]; Preemergence, 500 g ai/ha): 90
- Plant response rating, Ryegrass, Italian [8, 19]: 70
- Ryegrass, Italian plant response rating (0 to 100 scale, 0 is no effect, 100 is complete control) ([8]; Preemergence, 500 g ai/ha): 90
- Plant response rating, Kochia (Kochia (Kochia scoparia) [9]; [19]): 70
- Kochia plant response rating (0 to 100 scale, 0 is no effect, 100 is complete control) (Kochia (Kochia scoparia) [9]; Preemergence, 500 g ai/ha): 80
- Pigweed plant response rating ([10]; 125 g ai/ha, postemergence): 40
- Plant response rating, Pigweed [10, 20]: 50
- Foxtail, Giant plant response rating ([11]; 125 g ai/ha, postemergence): 90
- Plant response rating, Foxtail, Giant [11, 20]: 90
- Ragweed plant response rating ([12]; 125 g ai/ha, postemergence): 30
- Plant response rating, Ragweed [12, 20]: 30
- Galium plant response rating ([13]; 125 g ai/ha, postemergence): 60
- Plant response rating, Galium [13, 20]: 70
- Barnyardgrass plant response rating ([14]; 125 g ai/ha, postemergence): 90
- Plant response rating, Barnyardgrass [14, 20]: 90
- Blackgrass plant response rating ([15]; 125 g ai/ha, postemergence): 60
- Plant response rating, Blackgrass [15, 20]: 70
- Ryegrass, Italian plant response rating ([16]; 125 g ai/ha, postemergence): 70
- Plant response rating, Ryegrass, Italian [16, 20]: 80
- Wheat plant response rating ([17]; 125 g ai/ha, postemergence): 70
- Plant response rating, Wheat [17, 20]: 70
- Kochia plant response rating (Kochia (Kochia scoparia) [18]; 125 g ai/ha, postemergence): 50
- Plant response rating, Kochia (Kochia (Kochia scoparia) [18]; [20]): 60
- Corn plant response rating (corn (Zea mays); 125 g ai/ha, postemergence): 90
- Plant response rating, Corn (corn (Zea mays); [20]): 90

SMILES: O=C1NCC(c2cc(F)cc(Cl)c2)C1C(=O)Nc1cccc(F)c1F (centres unmarked) [Compound 492]
- Plant response rating, Ducksalad [1]: 100
- Plant response rating, Barnyardgrass [2]: 65
- Plant response rating, Rice (rice (Oryra sativa)): 25
- Plant response rating, Sedge, Umbrella [3]: 0
- Plant response rating, Pigweed [4, 21]: 0
- Pigweed plant response rating (0 to 100 scale, 0 is no effect, 100 is complete control) ([4]; Preemergence, 500 g ai/ha): 70
- Plant response rating, Foxtail, Giant [5, 21]: 90
- Foxtail, Giant plant response rating (0 to 100 scale, 0 is no effect, 100 is complete control) ([5]; Preemergence, 500 g ai/ha): 90
- Plant response rating, Ragweed [6, 21]: 30
- Ragweed plant response rating (0 to 100 scale, 0 is no effect, 100 is complete control) ([6]; Preemergence, 500 g ai/ha, visual injury approx. 10 d): 80
- Plant response rating, Barnyardgrass [7, 21]: 90
- Barnyardgrass plant response rating (0 to 100 scale, 0 is no effect, 100 is complete control) ([7]; Preemergence, 500 g ai/ha): 90
- Plant response rating, Ryegrass, Italian [8, 21]: 50
- Ryegrass, Italian plant response rating (0 to 100 scale, 0 is no effect, 100 is complete control) ([8]; Preemergence, 500 g ai/ha): 50
- Plant response rating, Kochia (Kochia (Kochia scoparia) [9]; [21]): 60
- Kochia plant response rating (0 to 100 scale, 0 is no effect, 100 is complete control) (Kochia (Kochia scoparia) [9]; Preemergence, 500 g ai/ha): 70
- Pigweed plant response rating ([10]; 125 g ai/ha, postemergence): 40
- Plant response rating, Pigweed [10, 22]: 60
- Foxtail, Giant plant response rating ([11]; 125 g ai/ha, postemergence): 90
- Plant response rating, Foxtail, Giant [11, 22]: 90
- Ragweed plant response rating ([12]; 125 g ai/ha, postemergence): 30
- Plant response rating, Ragweed [12, 22]: 70
- Galium plant response rating ([13]; 125 g ai/ha, postemergence): 50
- Plant response rating, Galium [13, 22]: 60
- Barnyardgrass plant response rating ([14]; 125 g ai/ha, postemergence): 90
- Plant response rating, Barnyardgrass [14, 22]: 90
- Blackgrass plant response rating ([15]; 125 g ai/ha, postemergence): 50
- Plant response rating, Blackgrass [15, 22]: 70
- Ryegrass, Italian plant response rating ([16]; 125 g ai/ha, postemergence): 20
- Plant response rating, Ryegrass, Italian [16, 22]: 50
- Wheat plant response rating ([17]; 125 g ai/ha, postemergence): 20
- Plant response rating, Wheat [17, 22]: 60
- Kochia plant response rating (Kochia (Kochia scoparia) [18]; 125 g ai/ha, postemergence): 40
- Plant response rating, Kochia (Kochia (Kochia scoparia) [18]; [22]): 60
- Corn plant response rating (corn (Zea mays); 125 g ai/ha, postemergence): 70
- Plant response rating, Corn (corn (Zea mays); [22]): 80

SMILES: CN1CC(c2ccc(F)c(C(F)(F)F)c2)C(C(=O)Nc2cccc(F)c2F)C1=O (centres unmarked) [Compound 613]
- Plant response rating, Ducksalad [1]: 98
- Plant response rating, Barnyardgrass [2]: 80
- Plant response rating, Rice (rice (Oryra sativa)): 10
- Plant response rating, Sedge, Umbrella [3]: 75
- Plant response rating, Pigweed [4, 21]: 70
- Plant response rating, Pigweed [4, 23]: 70
- Plant response rating, Foxtail, Giant [5, 21]: 90
- Plant response rating, Foxtail, Giant [5, 23]: 90
- Plant response rating, Ragweed [6, 21]: 60
- Plant response rating, Ragweed [6, 23]: 60
- Plant response rating, Barnyardgrass [7, 21]: 90
- Plant response rating, Barnyardgrass [7, 23]: 90
- Plant response rating, Ryegrass, Italian [8, 21]: 70
- Plant response rating, Ryegrass, Italian [8, 23]: 80
- Plant response rating, Kochia (Kochia (Kochia scoparia) [9]; [21]): 60
- Plant response rating, Kochia (Kochia (Kochia scoparia) [9]; [23]): 70
- Plant response rating, Pigweed [10, 24]: 50
- Plant response rating, Pigweed [10, 22]: 70
- Plant response rating, Foxtail, Giant [11, 24]: 90
- Plant response rating, Foxtail, Giant [11, 22]: 90
- Plant response rating, Ragweed [12, 24]: 20
- Plant response rating, Ragweed [12, 22]: 30
- Plant response rating, Galium [13, 24]: 60
- Plant response rating, Galium [13, 22]: 60
- Plant response rating, Barnyardgrass [14, 24]: 70
- Plant response rating, Barnyardgrass [14, 22]: 90
- Plant response rating, Blackgrass [15, 24]: 40
- Plant response rating, Blackgrass [15, 22]: 60
- Plant response rating, Ryegrass, Italian [16, 24]: 60
- Plant response rating, Ryegrass, Italian [16, 22]: 60
- Plant response rating, Wheat [17, 24]: 40
- Plant response rating, Wheat [17, 22]: 50
- Plant response rating, Kochia (Kochia (Kochia scoparia) [18]; [24]): 60
- Plant response rating, Kochia (Kochia (Kochia scoparia) [18]; [22]): 70
- Plant response rating, Corn (corn (Zea mays); [24]): 50
- Plant response rating, Corn (corn (Zea mays); [22]): 80
